Experimental data taken from article PMC8589628, “Characterization and Antimicrobial Studies of Iturin-Like and Bogorol-Like Lipopeptides From Brevibacillus spp. Strains GI9 and SKDU10” (Frontiers in Microbiology, 2021).
In brackets after ≈: the same amount, converted by molar mass.

How the values were obtained:
[1] = system: C. glabrata MTCC 3019; assay: MIC, microtiter plate dilution assay; format: cell-based; set-up: key to MIC value: R = resistant; conditions: 5 × 10^5 CFU/ml, 37°C, OD 600 nm after 48 h
Description: (§1) The antimicrobial activity of HPLC purified compounds was determined against various test strains including S. aureus MTCC 1430, Vibrio cholera MTCC 3904, Bacillus subtilis MTCC 121, Listeria monocytogenes MTCC 839, C. albicans MTCC 183, C. albicans MTCC 1637, C. albicans MTCC 227, C. tropicalis MTCC 184, C. glabrata MTCC 3019, and C. inconspicua MTCC 1074. Antimicrobial activity was also tested against clinical Candida strains and phytopathogenic fungi viz. Fusarium moniliforme MTCC 158, Alternaria brassicicola MTCC 2102 and Colletotrichum acutatum MTCC 1037. Bacterial and Candida test strains were grown in NB and yeast malt broth (YMB), respectively. Fungal test strains were grown in potato dextrose broth (PDB). Minimum inhibitory concentrations (MICs) of purified compounds were evaluated against test organisms by using a microtiter plate dilution assay. Mid-log-phase test strains (5 × 10^5 CFU/ml) were incubated in a 96-well plate with different concentrations of the lipopeptides for 24–48 h at 37°C (final volume of 200 μl). OD was measured at 600 nm after 24 and 48 h for bacteria and yeast, respectively, using an ELISA microplate reader (Thermo Scientific, United States). MIC against phytopathogenic fungi was determined using the 96-well microtiter plate method ([Sharma et al., 2020]).

[2] = system: C. haemulonii MTCC 2766; assay: MIC, microtiter plate dilution assay; format: cell-based; set-up: key to MIC value: R = resistant; conditions: 5 × 10^5 CFU/ml, 37°C, OD 600 nm after 48 h
Description: as §1

[3] = system: C. tropicalis MTCC 184; assay: MIC, microtiter plate dilution assay; format: cell-based; set-up: key to MIC value: R = resistant; conditions: 5 × 10^5 CFU/ml, 37°C, OD 600 nm after 48 h
Description: as §1

[4] = system: C. inconspicua MTCC 1074; assay: MIC, microtiter plate dilution assay; format: cell-based; conditions: Pichia inconspicua, MTCC1074, YMB, 5 × 10^5 CFU/ml, 37°C, OD 600 nm after 48 h
Description: as §1

[5] = system: C. albicans MTCC 183; assay: MIC, microtiter plate dilution assay; format: cell-based, Candida albicans; conditions: Candida albicans, MTCC183, YMB, 5 × 10^5 CFU/ml, 37°C, OD 600 nm after 48 h
Description: as §1

[6] = system: C. albicans MTCC 1637; assay: MIC, microtiter plate dilution assay; format: cell-based, Candida albicans; set-up: key to MIC value: R = resistant; conditions: 5 × 10^5 CFU/ml, 37°C, OD 600 nm after 48 h
Description: as §1

[7] = system: C. albicans MTCC 227; assay: MIC, microtiter plate dilution assay; format: cell-based, Candida albicans; set-up: key to MIC value: R = resistant; conditions: 5 × 10^5 CFU/ml, 37°C, OD 600 nm after 48 h
Description: as §1

[8] = system: C. albicans 400054; assay: MIC, microtiter plate dilution assay, clinical strain; format: cell-based, Candida albicans; set-up: key to MIC value: R = resistant; conditions: YMB, 37°C, OD 600 nm after 48 h
Description: (§2) Brevibacillus sp. strains GI-9 and SKDU10 were known to produce class IId bacteriocins identified as laterosporulins a ([Singh et al., 2012]; [Baindara et al., 2016]). Both strains were grown on nutrient agar (NA, Himedia, India). All test strains used in this study were obtained from Microbial Type Culture Collection and Gene bank (MTCC), Chandigarh, India. Clinical Candida strains were obtained from the National Culture Collection of Pathogenic Fungi (NCCPF), PGIMER, Chandigarh, India, and all strains were grown on recommended media.
as §1

[9] = system: C. auris 470126; assay: as above; format: cell-based; set-up: key to MIC value: R = resistant; conditions: YMB, 37°C, OD 600 nm after 48 h
Description: as §2, §1

[10] = system: C. haemulonii 470125; assay: as above; format: cell-based; set-up: key to MIC value: R = resistant; conditions: YMB, 37°C, OD 600 nm after 48 h
Description: as §2, §1

[11] = system: C. kefyr 410004; assay: as above; format: cell-based; set-up: key to MIC value: R = resistant; conditions: YMB, 37°C, OD 600 nm after 48 h
Description: as §2, §1

[12] = system: C. tropicalis 420024; assay: as above; format: cell-based; set-up: key to MIC value: R = resistant; conditions: YMB, 37°C, OD 600 nm after 48 h
Description: as §2, §1

[13] = system: C. krusei 440009; assay: as above; format: cell-based; conditions: Pichia kudriavzevii, YMB, 37°C, OD 600 nm after 48 h
Description: as §2, §1

[14] = system: C. parapsilosis 450030; assay: as above; format: cell-based; conditions: Lodderomyces parapsilosis, YMB, 37°C, OD 600 nm after 48 h
Description: as §2, §1

[15] = system: C. rugosa 470141; assay: as above; format: cell-based; conditions: Diutina rugosa, YMB, 37°C, OD 600 nm after 48 h
Description: as §2, §1

[16] = system: C. acutatum MTCC1037; assay: MIC against phytopathogenic fungi, 96-well microtiter plate method; format: cell-based, Colletotrichum acutatum; set-up: key: R = resistant; conditions: PDB
Description: as §1

[17] = system: F. moniliforme MTCC 158; assay: as above; format: cell-based, Fusarium moniliforme; conditions: Fusarium verticillioides, MTCC158, PDB
Description: as §1

[18] = system: A. brassicicola MTCC 2102; assay: as above; format: cell-based, Alternaria brassicicola; set-up: key to MIC value: R = resistant
Description: as §1

[19] = system: Vigna radiata (Moong) seeds; assay: Seed germination-based phytotoxicity assay; conditions: Vigna radiata seeds soaked in 0.1% solution (positive control), up to 3 days
Description: For hemolysis assay rabbit erythrocytes were treated with different concentrations of purified active antimicrobial compounds ranging from 250 to 750 μg/ml and incubated at 37°C for 24 h in a 5% CO2 incubator. The release of hemoglobin was monitored by measuring the absorbance at 540 nm in a microplate reader. PBS and 0.1% Triton X-100 were used as controls for 0 and 100% hemolysis, respectively ([Singh et al., 2021]). For phytotoxicity assay, sterilized Vigna radiata (Moong) seeds were treated with different concentrations of purified antimicrobial compounds (250–750 μg/ml). Seeds soaked in water and 0.1% mercuric chloride were used as negative and positive control, respectively. Seeds germination was observed up to 3 days of incubation.

With `C[C@@H]1[C@H](O)[C@@H](C)/C=C/C=C/C=C/C=C/C=C/C=C/C=C/[C@H](O[C@@H]2O[C@H](C)[C@@H](O)[C@H](N)[C@@H]2O)C[C@@H]2O[C@](O)(C[C@@H](O)C[C@@H](O)[C@H](O)CC[C@@H](O)C[C@@H](O)CC(=O)O[C@H]1C)C[C@H](O)[C@H]2C(=O)O` [Amphotericin B] the MIC ([1]; Nakaseomyces glabratus, MTCC3019, YMB) was 25 µg/mL (≈ 27.1 µM), the MIC ([2]; Candidozyma haemuli, MTCC2766, YMB) was 100 µg/mL (≈ 108 µM) and the MIC ([3]; Candida tropicalis, MTCC184, YMB) was 35 µg/mL (≈ 37.9 µM). It also gave an MIC [4] of 10 µg/mL (≈ 10.8 µM), an MIC [5] of 5 µg/mL (≈ 5.41 µM) and an MIC ([6]; Candida albicans, MTCC1637, YMB) of 5 µg/mL (≈ 5.41 µM). It also gave an MIC ([7]; Candida albicans, MTCC227, YMB) of 5 µg/mL (≈ 5.41 µM), an MIC ([8]; Candida albicans) of 5 µg/mL (≈ 5.41 µM) and an MIC ([9]; Candidozyma auris) of 5 µg/mL (≈ 5.41 µM). The MIC ([10]; Candidozyma haemuli) was 50 µg/mL (≈ 54.1 µM), the MIC ([11]; Kluyveromyces marxianus) was 50 µg/mL (≈ 54.1 µM) and the MIC ([12]; Candida tropicalis) was 50 µg/mL (≈ 54.1 µM). The MIC [13] was 5 µg/mL (≈ 5.41 µM), the MIC [14] was 50 µg/mL (≈ 54.1 µM) and the MIC [15] was 5 µg/mL (≈ 5.41 µM). The MIC value [16] was “R”, the MIC [17] was 50 µg/mL (≈ 54.1 µM) and the MIC ([18]; Alternaria brassicicola, MTCC2102, PDB) was 50 µg/mL (≈ 54.1 µM).

`OC(Cn1cncn1)(Cn1cncn1)c1ccc(F)cc1F` [Fluconazole] was tested, and the MIC value ([1]; YMB) was “R”, the MIC value ([2]; YMB) was “R” and the MIC value ([3]; YMB) was “R”. The MIC [4] was 50 µg/mL (≈ 163 µM), the MIC value ([6]; YMB) was “R” and the MIC value ([7]; YMB) was “R”. The MIC value [8] was “R”, the MIC value [9] was “R” and the MIC value [10] was “R”. The MIC value [11] was “R”, the MIC value [12] was “R” and the MIC [13] was 1 µg/mL (≈ 3.27 µM). The MIC [14] was 10 µg/mL (≈ 32.7 µM), the MIC [15] was 5 µg/mL (≈ 16.3 µM) and the MIC value [16] was “R”. The MIC [17] was 10 µg/mL (≈ 32.7 µM) and the MIC value ([18]; PDB) was “R”.

`[Cl][Hg][Cl]` [mercuric chloride] was tested, and the Seed germination [19] was “No germination”.
